The values below come from paper PMC11403612, “Preparation and Preclinical Characterization of a Simple Ester for Dual Exogenous Supply of Lactate and Beta-hydroxybutyrate” (Journal of Agricultural and Food Chemistry, 2024).

Structures are written as SMILES.

Series [1] in a line: Hepatocyte stability of LaKe, rat. In kind it is in vitro ADME. The following applies: cryopreserved hepatocytes.
Series [2] is described as follows: Stability of LaKe in plasma, rat. In kind it is in vitro ADME. The procedure:
The in vitro stability of LaKe was evaluated following incubation in simulated gastric fluid (SGF), simulated intestinal fluid (SIF), fresh and frozen plasma (rats and humans, respectively), and the presence of hepatocytes (rats and humans) and liver microsomes (rats and humans). At the chosen time points, the mixtures were analyzed by LC-MS/MS to quantify the remaining LaKe and all assays included at least one control compound with known pharmacokinetic properties. […]
centrifuged at 4000 rpm, 4℃ for 20 min. 60 μL of supernatant was mixed with 180 μL of purified water for subsequent LC/MS/MS analysis.
LC-MS/MS Condition: ACQUITY UPLC BEH C18 1.7um 2.1 * 50mm Column (Part No.186002350). Mobile phase: A: 0.1% Formic Acid in Water; B: 0.1% Formic Acid in ACN. […]
Samples were incubated at 37 ℃, 600 rpm for the appointed time. At the chosen time points (60, 120, 360, 1440 minutes) samples were immediately mixed with 400 μL of cold acetonitrile containing 200 ng/mL tolbutamide and labetalol (internal standards). 200 μL of suspension was removed and mixed completely with 400 μL of cold acetonitrile containing 200 ng/mL tolbutamide and labetalol again. The T0 samples were prepared by transferring 198 μL of SIF solution to corresponding well after adding 400 μL of cold acetonitrile containing 200 ng/mL tolbutamide and then mixing completely. The samples were […]
Stability of LaKe in plasma […]

Series [3] is described as follows: Microsomal stability of LaKe, rat. In kind it is in vitro ADME, SD Rat. How it is done: The in vitro stability of LaKe was evaluated following incubation in simulated gastric fluid (SGF), simulated intestinal fluid (SIF), fresh and frozen plasma (rats and humans, respectively), and the presence of hepatocytes (rats and humans) and liver microsomes (rats and humans). At the chosen time points, the mixtures were analyzed by LC-MS/MS to quantify the remaining LaKe and all assays included at least one control compound with known pharmacokinetic properties.
Hepatocyte stability of LaKe
Cells: Rat hepatocytes (BioreclamationIVT, M0005); Human hepatocytes (BioreclamationIVT, X008001) Thawing Medium: Williams’ Medium E containing 5% fetal bovine serum and 30% Percoll solution and other […]
Incubation Medium: Williams’ Medium E (no phenol red) containing 2 mM L-Glutamine and 25 mM HEPES.
Stop Solution: Acetonitrile containing 200 ng/mL tolbutamide and labetalol as internal standards.
Dilution Solution: Ultra-pure water.
Preparation of Quenching Plate: Transfer 125 μL of stop solution (acetonitrile containing 200 ng/mL tolbutamide and 200 ng/mL labetalol as internal standards) in a set of pre-labeled 96-well plates.
Cryopreserved cells were thawed, isolated and suspended in Incubation Medium, then diluted with pre-warmed Incubation Medium to 0.5 × 10^6 cells/mL. 198 μL of pre-warmed cell suspensions were added in 96-well plates. […]

Usually half-life stands for how long it takes for the measured level to halve. A low value points to rapid decline. In turn, `CC(O)CCOC(=O)C(C)O` (centres unmarked) [LaKe, 3-hydroxybutyl 2-hydroxypropanoate] came in with a half-life at 0.1 mg/mL in series [1] of less than 30 min. In series [2] (fresh plasma from rats, 10 min), the “detection of LaKe at the first time point” value is “could not be detected”. This compound also gave a half-life at 2 µM in series [2] (rat plasma (fresh)) of less than 30 min. Moreover, the “turnover in liver microsomes” value in series [3] (presence of NADPH) is recorded as “underwent turnover”. For the same compound, the LaKe remaining in series [3] (rat liver microsomes, absence of NADPH, after 60 min) was 55%.
